In patent US20020137715A1, “Blocking Sp1 transcription factor broadly inhibits extracellular matrix gene expression in vitro and in vivo: implications for the treatment of tissue fibrosis” (priority 2001, published 2002):

Key:
mouse COL1A2 promoter = test: Decoy oligonucleotides in COL1A2/luciferase transgenic mice (FIG. 5B); format: in vivo; settings: 15 μg intradermally; COL1A2/lux transgenic mice; 24 hours; vs control skin
Protocol: FIG. 5. Decoy Sp1 oligonucleotides inhibit COL1A2 promoter activity in vitro and in vivo. A, Confluent human dermal fibroblast cultures are transfected with 5 μg of −500COL1A2/CAT reporter gene construct. After glycerol shock, increasing amounts (2, 5, 10 μg) of Sp1 (open bars) or mSp1 (hatched bars) oligonucleotides are added to the culture medium. Forty hours later, CAT activity is determined and compared to that of cultures without oligonucleotides (closed bar). Relative promoter activity (mean±SD) of three separate experiments performed in duplicate is presented. […] After a 30-hr incubation, animals are sacrified and luciferase activity is determined in the skin surrounding the injection sites using identical amounts of protein extracts (40 μg). […]
Treatment of transgenic mice. […] Luciferase activity using identical amounts of extracted proteins is determined with a commercial assay kit (Promega).
Next, decoy Sp1 experiments are performed in a transgenic mouse model in which 17 kb of the mouse COL1A2 promoter drives the expression of the luciferase gene. […] Luciferase activity is determined 24 hours later in the skin region surrounding the injections. […]

human dermal fibroblasts = format: cell-based
COL7A1 promoter = test: Decoy oligonucleotides on COL7A1 promoter activity; format: cell-based, human; settings: compared with COL1A2 promoter
COL1A2 promoter = test: Decoy oligonucleotides on COL1A2/CAT promoter activity in dermal fibroblasts (FIG. 5A); format: cell-based, human; settings: −3500COL1A2/CAT, 24 h; for decrease of COL1A2 promoter activity: various amounts added to culture medium
Protocol: FIG. 5. Decoy Sp1 oligonucleotides inhibit COL1A2 promoter activity in vitro and in vivo. A, Confluent human dermal fibroblast cultures are transfected with 5 μg of −500COL1A2/CAT reporter gene construct. After glycerol shock, increasing amounts (2, 5, 10 μg) of Sp1 (open bars) or mSp1 (hatched bars) oligonucleotides are added to the culture medium. Forty hours later, CAT activity is determined and compared to that of cultures without oligonucleotides (closed bar). Relative promoter activity (mean±SD) of three separate experiments performed in duplicate is presented. B, Four transgenic mice carrying 17 kb of mouse COL1A2 promoter linked to the luciferase gene in their genome are injected subcutaneously at distant sites (approx. 2 cm apart) with 15 μg of either Sp1 (open bar) or mSp1 (hatched bar) oligonucleotides in 25 μl of H2O. After a 30-hr incubation, animals are sacrified and luciferase activity is determined in the skin surrounding the injection sites using identical amounts of protein extracts (40 μg). A non-injected skin area is used as control (solid bar).
Transient cell transfection and CAT assays. Transient cell transfections are performed with the calcium phosphate/DNA co-precipitation procedure. CAT activity is measured using [^14C]chloramphenicol as substrate (Gorman et al, Mol Cell Biol 2: 1044-1051, 1982) followed by thin layer chromatography and quantitation with a phosphorimager.
Decoy oligonucleotides. In some in vitro experiments decoy double-stranded oligonucleotides are used in an attempt to interfere with Sp1 binding to its cognate cis-elements within the COL1A2 promoter. […] 24 h later, CAT activity, representing promoter activity, is determined.
Decoy Sp1 oligonucleotides inhibit COL1A2 promoter activity in vitro and in vivo. Since Sp1 is fundamental for high expression of several ECM genes, short oligonucleotides bearing a consensus Sp1 binding sequence are analyzed for their efficacy as decoys to decrease collagen promoter activity. […] Promoter activity is determined 24 h later. […]

Sp1 = Sp1 (Homo sapiens, UniProt P08047); test: EMSA binding of Sp1 to oligonucleotide; settings: EMSA experiments
Protocol: Electrophoresis mobility shift assays (EMSA). A 22-mer consensus Sp1 oligonucleotide 5′-[…]-3′ was used as a probe to determine Sp1/DNA interactions. For supershift experiments, nuclear extracts (5 μg) are incubated for 2 h on ice with an anti-Sp1 antibody (Santa Cruz Biotechnologies, Santa Cruz, Calif.) prior to the binding reactions. Binding mixtures are separated electrophoretically on native 4% acrylamide gels, as described previously (Vindevoghel et al, 1997).
Decoy Sp1 oligonucleotides inhibit COL1A2 promoter activity in vitro and in vivo. Since Sp1 is fundamental for high expression of several ECM genes, short oligonucleotides bearing a consensus Sp1 binding sequence are analyzed for their efficacy as decoys to decrease collagen promoter activity. For this purpose. two approaches are used. First, human dermal fibroblasts are transfected with the −3500COL1A2/CAT construct, and various amounts of either wild-type or mutant Sp1 double-stranded oligonucleotides (SEQ. ID. NO:2 and SEQ. ID. NO: 3. respectively) are added to the culture medium. Promoter activity is determined 24 h later. […] Maximal inhibition (55%) is observed with addition of […] of Sp1 oligonucleotide.

Chain of Sp1 (P08047 whole entry): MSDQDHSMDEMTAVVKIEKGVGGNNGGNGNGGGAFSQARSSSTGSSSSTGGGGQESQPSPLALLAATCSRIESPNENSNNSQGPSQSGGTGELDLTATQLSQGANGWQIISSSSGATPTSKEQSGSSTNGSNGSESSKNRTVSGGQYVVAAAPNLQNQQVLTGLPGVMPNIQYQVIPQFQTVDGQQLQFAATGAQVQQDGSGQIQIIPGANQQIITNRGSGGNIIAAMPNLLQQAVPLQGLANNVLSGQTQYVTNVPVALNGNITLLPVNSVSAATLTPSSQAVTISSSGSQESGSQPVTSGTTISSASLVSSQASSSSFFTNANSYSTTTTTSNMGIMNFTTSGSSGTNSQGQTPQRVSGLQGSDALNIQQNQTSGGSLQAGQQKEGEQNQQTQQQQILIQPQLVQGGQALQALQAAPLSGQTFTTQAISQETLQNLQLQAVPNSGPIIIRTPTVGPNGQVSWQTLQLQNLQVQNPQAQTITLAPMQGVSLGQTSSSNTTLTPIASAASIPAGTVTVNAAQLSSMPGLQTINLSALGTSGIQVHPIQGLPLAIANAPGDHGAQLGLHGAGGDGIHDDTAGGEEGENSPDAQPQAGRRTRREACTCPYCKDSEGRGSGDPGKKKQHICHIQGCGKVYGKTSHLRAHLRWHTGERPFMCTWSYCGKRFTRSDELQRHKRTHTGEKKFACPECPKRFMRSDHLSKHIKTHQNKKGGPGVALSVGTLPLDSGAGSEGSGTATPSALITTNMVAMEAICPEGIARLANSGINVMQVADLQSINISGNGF

Row | Substance | reduction of COL1A2 promoter activity (luciferase activity in skin) (mouse COL1A2 promoter) | cellular toxicity (human dermal fibroblasts) | inhibition of COL7A1 promoter (COL7A1 promoter) | Maximal inhibition of COL1A2 promoter activity (COL1A2 promoter; 15 μg/plate) [%] | decrease of COL1A2 promoter activity (COL1A2 promoter) | binding of Sp1 to the oligonucleotide's Sp1 binding site (Sp1)
1 | Sp1 oligonucleotide: 22-mer consensus Sp1 double-stranded decoy oligonucleotide, 5′-ATTCGATCGGGGCGGGGCGAGC-3′ (double-stranded, further chemistry not given here) | about 70% | No cellular toxicity | equally inhibited | 55 | efficiently decreases COL1A2 promoter activity in a dose-dependent manner | 
2 | mSp1: mutant double-stranded oligonucleotide used as a control, 5′-ATTCGATCGTAGCGATGCGAGC-3′ (double-stranded, further chemistry not given here) [reference compound] | no effect | No cellular toxicity |  |  | not | incapable of binding Sp1
